The assay has as its target PCSK9 secreted by HepG2 cells (Homo sapiens (Human), UniProt Q8NBP7). Kind of assay: Effect on the concentration of PCSK9 secreted by HepG2 cells (ELISA). The conditions noted are these: 48 hours incubation, read-out: Inhibitory activity on PCSK9, IC50. Type of assay: cell-based. A general note: An ELISA detects its analyte on a solid surface through an enzyme-linked reagent.

SMILES strings stand for the structures.

Sequence of PCSK9 secreted by HepG2 cells (Q8NBP7 153-692): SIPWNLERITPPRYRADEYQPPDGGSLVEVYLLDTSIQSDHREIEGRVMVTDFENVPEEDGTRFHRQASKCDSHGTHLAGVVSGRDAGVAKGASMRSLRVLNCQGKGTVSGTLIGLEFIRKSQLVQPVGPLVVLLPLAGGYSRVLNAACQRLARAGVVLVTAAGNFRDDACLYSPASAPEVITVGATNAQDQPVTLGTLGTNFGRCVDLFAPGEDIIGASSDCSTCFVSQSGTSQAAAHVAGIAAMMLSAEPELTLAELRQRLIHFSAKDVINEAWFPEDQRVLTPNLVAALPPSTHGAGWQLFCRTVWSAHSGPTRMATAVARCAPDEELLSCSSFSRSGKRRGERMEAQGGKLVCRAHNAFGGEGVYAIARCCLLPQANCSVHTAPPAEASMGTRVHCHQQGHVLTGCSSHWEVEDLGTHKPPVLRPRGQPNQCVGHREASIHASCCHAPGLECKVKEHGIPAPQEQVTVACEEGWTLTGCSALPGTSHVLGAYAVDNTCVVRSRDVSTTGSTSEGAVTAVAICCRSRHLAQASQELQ
Sequence of PCSK9 secreted by HepG2 cells (Q8NBP7 31-152 partner): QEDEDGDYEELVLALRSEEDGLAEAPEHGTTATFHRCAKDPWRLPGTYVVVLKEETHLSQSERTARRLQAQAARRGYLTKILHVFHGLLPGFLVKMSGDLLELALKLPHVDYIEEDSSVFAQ

`O=C1c2ncccc2CN1c1ccc(N[C@H]2CC[C@H](Nc3ncc(C(F)(F)F)nn3)C2)nc1` [Example 144]: the IC50 – broadly, the concentration at which inhibition is half-maximal – turned out to be 27.5 µM.

As for `Cc1cc2c(cn1)CN(c1ccc(N[C@H]3CC[C@H](Nc4ncc(C(F)(F)F)nn4)C3)nc1)C2=O` [Example 148, 6-Methyl-2-(6-(((1S,3S)-3-((6-(trifluoromethyl)-1,2,4-triazin-3-yl)amino)cyclopentyl)amino)pyridin-3-yl)-2,3-dihydro-1H-pyrrolo[3,4-c]pyridin-1-one], the IC50 stood at 9.4 µM.

As to `O=C1c2c(cccc2C(F)(F)F)CN1c1ccc(N[C@H]2CC[C@H](Nc3ncc(C(F)(F)F)nn3)C2)nc1` [Example 157, 7-(Trifluoromethyl)-2-(6-(((1S,3S)-3-((6-(trifluoromethyl)-1,2,4-triazin-3-yl)amino)cyclopentyl)amino)pyridin-3-yl) isoindolin-1-one], the IC50 came out at 4.2 µM.

The record behind these values is patent publication US20250326722A1 (SHANGHAI HANSOH BIOMEDICAL CO., LTD., priority 2022, published 2025).
